Test results reported in article PMC11313944, “Ethyl Acetate Fraction from Eleutherococcus divaricatus Root Extract as a Promising Source of Compounds with Anti-Hyaluronidase, Anti-Tyrosinase, and Antioxidant Activity but Not Anti-Melanoma Activity” (Molecules, 2024).
Marks after values point to notes of the source that are not given here. Values belong to the compound of their own block, whether it stands above or below them.

Experiments:
[1] = biological target: hyaluronidase; settings: cited from earlier work
[2] = biological target: mushroom tyrosinase (mTYR); assay: Tyrosinase inhibition assay (L-tyrosine substrate); assay type: biochemical; settings: phenolic acid and eleutheroside standards (Table 6)
Protocol: Tyrosinase inhibitor assays were conducted in 96-well plates using a modified method originally described by Wróbel-Biedrawa. The process involves the conversion of […] to L-DOPA, then to DOPA-quinone, facilitated by the tyrosinase enzyme. This reaction results in the solution turning brown. In brief, 10 μL of the sample (concentrations of 10.0, 1.0, and 0.1 mg/mL in 10% DMSO) was combined with 150 μL of a phosphoric buffer containing mushroom tyrosinase (pH = 6.88, 100 U/mL). This mixture was then incubated for 10 min at room temperature. […] Following incubation, L-tyrosine (0.3 mg/mL) was added to each well, and the absorbance was measured at 492 nm (using a kinetic model every 5 min). Two time points (t1 and t2) were selected within the linear range of the graph. All samples were tested in triplicate. […] INHTYR=AC−AS/AC∗100%
AS—the difference in absorbance between times t2 and t1 for the sample;
AC—the difference in absorbance between times t2 and t1 for the positive control.

[3] = DPPH free radical scavenging activity; settings: 60 min incubation
Protocol: The DPPH free radical scavenging test was conducted according to the procedure established by Naseer et al.. A working solution of DPPH• was prepared by dissolving 24 mg of DPPH in 100 mL of […]. This solution was further diluted with methanol until it reached an absorbance of 0.900 ± 0.03 at 515 nm. Subsequently, volumes of 10 μL of extracts at concentrations of 1 mg/mL, 0.1 mg/mL, and 0.01 mg/mL (dissolved in MeOH) were combined with 190 μL of the DPPH• solution and allowed to incubate for 60 min. The absorbance at 515 nm was measured post incubation. Butylated hydroxyanisole (BHA) was used as a control. The antioxidant activity was then calculated using a specified equation. INHDPPH=AC−AS/AC∗100%
AS—the absorbance for sample + DPPH;
AC—the absorbance without sample + DPPH.

[4] = ABTS free radical scavenging activity; settings: 30 min incubation
Protocol: The ABTS free radical scavenging test was conducted following the method outlined by Wu et al. A working solution of ABTS+ was prepared by combining 10 mL of ABTS (7 mM in H2O) with 10 mL of potassium persulfate (2.45 mM in H2O). This mixture was then left to incubate in the dark for 12 h. The ABTS solution was subsequently diluted with water until it reached an absorbance of 0.700 ± 0.03 at 405 nm. Then, volumes of 10 μL of extracts at concentrations of 1 mg/mL, 0.1 mg/mL, and 0.01 mg/mL (dissolved in MeOH) were combined with 190 μL of the ABTS+ solution and incubated for 30 min. The absorbance at 405 nm was measured after the incubation period. Butylated hydroxyanisole (BHA) was used as a control. The antioxidant activity was then calculated using a specific equation. INHABTS=AC−AS/AC∗100%
AS—the absorbance for sample + ABTS;
AC—the absorbance without sample + ABTS.

[5] = biological target: T1, human serum hyaluronidase (hHYAL) (Homo sapiens, UniProt Q12794); assay: Human serum hyaluronidase inhibition, serum of children with acute lymphoblastic leukemia; assay type: biochemical; settings: mean over sera of 5 patients
T1 construct: from tissue; host or cells: serum of children diagnosed with acute lymphoblastic leukemia
T1 sequence (Q12794 22-435): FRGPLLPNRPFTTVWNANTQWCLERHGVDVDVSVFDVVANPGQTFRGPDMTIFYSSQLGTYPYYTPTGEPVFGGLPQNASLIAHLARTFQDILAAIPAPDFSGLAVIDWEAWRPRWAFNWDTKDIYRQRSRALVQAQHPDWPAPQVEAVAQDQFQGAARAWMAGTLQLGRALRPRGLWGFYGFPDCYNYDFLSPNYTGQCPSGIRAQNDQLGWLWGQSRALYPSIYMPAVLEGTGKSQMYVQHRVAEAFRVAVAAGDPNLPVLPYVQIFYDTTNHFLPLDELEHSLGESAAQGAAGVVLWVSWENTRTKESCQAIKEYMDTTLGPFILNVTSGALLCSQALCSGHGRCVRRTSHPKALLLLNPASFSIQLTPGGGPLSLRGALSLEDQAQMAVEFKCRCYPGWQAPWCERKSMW
Protocol: Five boys diagnosed with acute lymphoblastic leukemia (ALL) before starting treatment were included in the study. These patients were diagnosed at the Department of Pediatric Hematology and Oncology at Jurasz University Hospital in Bydgoszcz, Poland, between 2019 and 2020. Venous blood samples were collected from each child while fasting and placed into serum tubes supplied by Becton Dickinson, located in Franklin Lakes, NJ, USA. The blood samples were left to clot at room temperature for 30 min, then centrifuged for 20 min at 2000× g, also at room temperature. The samples were then collected and stored at a temperature of −80 °C until the time of analysis. The study was approved by the local Bioethics Committee (approval number 608/2019) and was conducted in accordance with the Declaration of Helsinki.
The inhibition of human serum hyaluronidase was assessed using modified methods. The activity of the compounds or extracts was determined by precipitating non-hydrolyzed hyaluronic acid with cetyltrimethylammonium bromide (CTAB). […] The intensity of the complex formation was measured at a wavelength of 600 nm. […] The inhibition of hyaluronidase was calculated using a specific equation, with aescin used as a standard. […]
(§1) AS—absorbance of the HA + sample + enzyme;
(§2) AC—absorbance of the HA + enzyme;
(§3) AT—absorbance of the HA + sample.

[6] = biological target: hyaluronidase from bovine testes (bHYAL) (Bos taurus, UniProt Q2YDK3); assay: Bovine hyaluronidase inhibition assay (CTAB turbidimetric); assay type: biochemical
Protocol: Bovine hyaluronidase inhibitor assays were conducted in 96-well plates, following a modified method originally described by Di Ferrante and Studzińska-Sroka. The activity of the compounds or extracts was determined based on the precipitation of non-hydrolyzed hyaluronic acid using cetyltrimethylammonium bromide (CTAB). A 10% water solution of DMSO was used to dissolve the extract. Then, 15 μL of extracts at concentrations of 10.0, 1.0, and 0.1 mg/mL in the well were mixed with an acetate buffer (15 μL, pH = 5.35), an incubation buffer (25 μL, pH = 5.35, 0.01% BSA, 0.45% NaCl), and an enzyme solution (25 μL, 30 U/mL in the incubation buffer). This mixture was incubated at 37 °C for 10 min. Following this, a hyaluronic acid solution (25 μL, 0.3 mg/mL in an acetate buffer with a pH of 5.35) was added. The plates were then incubated for an additional 45 min at 37 °C. After incubation, non-hydrolyzed hyaluronic acid was precipitated by adding 2.5% CTAB (200 μL). The plates were then maintained at 25 °C for 10 min. The intensity of the complex formation was measured at a wavelength of 600 nm. The presence of inhibition was determined by measuring the absorbance of the solution without the inhibitor (AC) and the enzyme (AT). All samples were tested in triplicate. The inhibition of hyaluronidase was calculated using a specific equation, with aescin used as a standard. INHHYAL=AS−AC/AT−AC∗100%
as §1, §2, §3

[7] = test system: human hyaluronidase (hHYAL); settings: cited from earlier work
[8] = test system: A375 melanoma cells; assay: MTT viability assay, A375; assay type: cell-based, human
Protocol: (§4) The following human melanoma cell lines were used in this study: A375 (ATCC:CRL-1619), UACC-647 (CVCL_4049), and SK-MEL-30 (DSMZ:ACC 151). A375 cells were maintained in Dulbecco’s Modified Eagle’s Medium (DMEM). UACC-647 and SK-MEL-30 were cultured in RPMI-1640. All basal media were supplemented with fetal bovine serum (FBS) at a final concentration of 10%. The control used in the study was BJ foreskin fibroblasts (ATCC:CRL-2522). To facilitate the growth of BJ cells, Eagle’s Minimum Essential Medium (EMEM) with 10% FBS was utilized. Tissue culture-treated Petri dishes were used to support all cell lines. A temperature of 37 °C and 5% CO2 were maintained routinely. The cells were expanded for a few passages, then seeded onto 96-well plates, where they were left to attach overnight. The following day, the cells were exposed to E. divaricatus fractionated extracts at descending concentrations, starting from 200 µg/mL, or to a vehicle (DMSO, 0.1%). Alternatively, the cells were treated with doxorubicin (DOX) to independently determine the inhibitory concentrations causing the 10, 50, and 90% levels of maximal inhibition (IC10, IC50, and IC90, respectively) of cellular viability for each melanoma cell line. Then, the melanoma cells were treated with the DOX at IC10, IC50, or IC90, followed by the addition of the fractions of the extracts from E. divaricatus at a dose of 200 µg/mL. Upon 24 h of incubation, the viability of the cells was assessed by MTT assay.
(§5) Dose–response curves were obtained using GraphPad Prism 8.4.3 software running on a personal computer. Experimental datapoints were fitted to the sigmoidal equation, and the IC50 value was calculated. IC10 and IC90 values were computed using a web tool available at https://www.graphpad.com/ accessed on 20 May 2023.

[9] = test system: SK-MEL-30 melanoma cells; assay: MTT viability assay, SK-MEL-30; assay type: cell-based, human
Protocol: as §4, §5

[10] = test system: UACC-647 melanoma cells; assay: MTT viability assay, UACC-647; assay type: cell-based, human
Protocol: as §4, §5

[11] = Iron (II) ion chelation assay (ferrozine); settings: results for 1 mg/mL
Protocol: The ion chelation assay was conducted using the method proposed by Li et al. [54]. Initially, 100 μL of extract at a concentration of 1.0 mg/mL was combined with methanol (150 μL, MeOH) and iron(II) chloride (5 μL, FeCl2) at a concentration of 2 mM. Subsequently, 5 μL of ferrozine was added at a concentration of 5 mM. Following a period of incubation, the absorbance was measured at a wavelength of 510 nm. The degree of chelation was then calculated using a specific equation, with ethylenediaminetetraacetic acid (EDTA) serving as a positive control. INHFe^2+=AC−AS/AC∗100%
AS—the absorbance for sample + ferrozine + FeCl2;
AC—the absorbance without sample + ferrozine + FeCl2.

[12] = test system: MCF-7 human breast adenocarcinoma cell line; set-up: method as in PMID 25918798; settings: read-out: IC50 antiproliferative; cited from earlier work
[13] = Homo sapiens, A-375, A375, 24 h
[14] = phenolic acid and eleutheroside standards (Table 6)

hyaluronidase from bovine testes (bHYAL), sequence (Q2YDK3 entry or part of it): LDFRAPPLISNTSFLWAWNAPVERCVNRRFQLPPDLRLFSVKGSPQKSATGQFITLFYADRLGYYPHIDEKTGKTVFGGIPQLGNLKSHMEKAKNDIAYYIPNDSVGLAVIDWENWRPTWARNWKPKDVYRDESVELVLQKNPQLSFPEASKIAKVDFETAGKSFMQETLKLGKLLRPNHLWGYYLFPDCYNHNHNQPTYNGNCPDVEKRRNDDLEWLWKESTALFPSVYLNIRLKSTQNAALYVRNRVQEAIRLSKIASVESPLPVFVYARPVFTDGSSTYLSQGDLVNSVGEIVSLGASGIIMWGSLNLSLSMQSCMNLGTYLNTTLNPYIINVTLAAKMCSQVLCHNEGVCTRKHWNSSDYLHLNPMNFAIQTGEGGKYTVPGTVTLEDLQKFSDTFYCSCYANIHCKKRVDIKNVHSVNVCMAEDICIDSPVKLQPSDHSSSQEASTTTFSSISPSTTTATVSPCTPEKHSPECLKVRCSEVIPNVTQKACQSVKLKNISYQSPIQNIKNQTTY

Compound: O=C(/C=C/c1ccc(O)c(O)c1)O[C@H](Cc1ccc(O)c(O)c1)C(=O)O [rosmarinic acid]
- IC50 [1]: 545 µM

Compound: O=C(O)c1ccc(O)c(O)c1 [Protocatechuic acid]
- IC50 mTYR [2]: 134.57 ± 3.46 ^b µg/mL

- IC50 DPPH [3]: 13.68 ± 3.53 ^a µg/mL
- IC50 ABTS [4]: 2.85 ± 0.18 ^ab µg/mL
Compound: Cc1c(C)c2c(c(C)c1O)CCC(C)(C(=O)O)O2 (centres unmarked) [TROLOX, 6-hydroxy-2,5,7,8-tetramethylchroman-2-carboxylic acid]

- IC50 DPPH [3]: 24.93 ± 0.28 ^ab µg/mL
- IC50 ABTS [4]: 2.27 ± 0.07 ^a µg/mL
Compound: O=C1O[C@H]([C@@H](O)CO)C(O)=C1O [AA, ascorbic acid]

- hHYAL inhibition, mean group value [5]: 63.8%
- IC50 bHYAL ([6]; fractions of the 75% methanol extract and control (Table 5)): 388.8 ± 1.81 ^b µg/mL
Compound: aescin
- inhibition of human hyaluronidase activity, range [7]: 20.00–47.37%
- inhibition of hyaluronidase activity, mean group value [7]: 40%

- IC50 [8, 13]: 0.33 µM
- IC90 [8, 13]: 1.19 µM
- IC50 ([9]; Homo sapiens, SK-MEL-30, 24 h, read-out: IC50 (50% of maximal inhibition of viability)): 1.52 µM
- IC90 ([9]; Homo sapiens, SK-MEL-30, 24 h, read-out: IC90 (90% of maximal inhibition of viability)): 9.63 µM
- IC50 ([10]; Homo sapiens, UACC-647, 24 h): 1.16 µM
- IC90 ([10]; Homo sapiens, UACC-647, 24 h): 3.76 µM
Compound: COc1cccc2c1C(=O)c1c(O)c3c(c(O)c1C2=O)C[C@@](O)(C(=O)CO)C[C@@H]3O[C@H]1C[C@H](N)[C@H](O)[C@H](C)O1 [DOX, doxorubicin]
- maximal level of inhibition of viability ([8]; A375): 96.38%
- IC10 ([8]; A375, 24 h): 0.09 µM
- inhibition of viability ([8]; A375, DOX alone at IC90): 96%
- maximal drop of viability ([9]; SK-MEL-30): 81.87%
- IC10 (10% of maximal inhibition of viability) ([9]; SK-MEL-30, 24 h): 0.24 µM
- maximal suppression of viability ([10]; UACC-647): 39.15%
- IC10 ([10]; UACC-647, 24 h): 0.36 µM

Compound: COc1cc(C2OCC3C(c4cc(OC)c(O[C@@H]5O[C@H](CO)[C@@H](O)[C@H](O)[C@H]5O)c(OC)c4)OCC23)cc(OC)c1O[C@@H]1O[C@H](CO)[C@@H](O)[C@H](O)[C@H]1O (single isomer, unassigned; (-)) [Eleutheroside E, (−)-siringaresinol 4,4″-O-β-D-diglucoside]
- IC50 mTYR [2]: no activity
- IC50 bHYAL [6, 14]: no activity

Compound: O=C(O)CN(CCN(CC(=O)O)CC(=O)O)CC(=O)O [EDTA, ethylenediaminetetraacetic acid]
- Ferrozine (iron(II) chelation) [11]: 98.9 ± 0.01%

Compound: COc1ccc(O)c(C(C)(C)C)c1 [BHA, Butylated hydroxyanisole]
- IC50 DPPH [3]: 62.52 ± 4.13 ^ab µg/mL
- IC50 ABTS [4]: 2.35 ± 0.11 ^a µg/mL

- IC50 mTYR [2]: 56.22 ± 0.67 ^a µg/mL
Compound: O=C(O)/C=C/c1ccc(O)c(O)c1 [Caffeic acid]

Compound: O=C1OCc2c1c(-c1ccc3c(c1)OCO3)c1cc3c(cc1c2O)OCO3 [taiwanin E]
- IC50 [12]: 1.47 µM

- IC50 mTYR [2]: 107.52 ± 3.46 ^ab µg/mL
Compound: O=C(/C=C/c1ccc(O)c(O)c1)O[C@@H]1C[C@](O)(C(=O)O)C[C@@H](O)[C@H]1O [Chlorogenic acid]

Compound: Eleutheroside E1
- IC50 mTYR [2]: no activity
- IC50 bHYAL [6, 14]: no activity

Compound: COc1cc(/C=C/CO)cc(OC)c1O[C@@H]1O[C@H](CO)[C@@H](O)[C@H](O)[C@H]1O [Eleutheroside B, syringin 4-β-D-glucoside]
- IC50 mTYR [2]: no activity
- IC50 bHYAL [6, 14]: no activity
